Data from PMC10211317, “Identification of ARUK2002821 as an isoform-selective PI5P4Kα inhibitor” (RSC Medicinal Chemistry, 2023).

Assays:
Assay in all cases: Premier Screen kinase panel (MRC PPU)
Type in all cases: biochemical
JAK3 = JAK3 (Homo sapiens, UniProt P52333); settings: JAK3 (Entrez JAK3), read-out: Residual activity (%)
Experimental: (§1) room temperature with shaking for 30 minutes. The kinase concentration in the eluates was measured by qPCR.
(§2) using ADP-GloTM assay at the MRC PPU International Centre for Kinase Profiling, University of Dundee.
(§3) Conducted by MRC PPU International Centre
(§4) Conducted by MRC PPU International Centre for […]

CHK2 = CHK2 (Homo sapiens, UniProt O96017); settings: CHK2 (Entrez CHEK2), read-out: Residual activity (%)
Experimental: as §1, §2, §3, §4

JNK2 = JNK2 (Homo sapiens, UniProt P45984); settings: JNK2 (Entrez MAPK9), read-out: Residual activity (%)
Experimental: as §1, §2, §3, §4

Aurora B = Aurora B (Homo sapiens, UniProt Q96GD4); settings: Aurora B (Entrez AURKB), read-out: Residual activity (%)
Experimental: as §1, §2, §3, §4

MSK1 = MSK1 (Homo sapiens, UniProt O75582); settings: MSK1 (Entrez RPS6KA5), read-out: Residual activity (%)
Experimental: as §1, §2, §3, §4

ULK1 = ULK1 (Homo sapiens, UniProt O75385); settings: ULK1 (Entrez ULK1), read-out: Residual activity (%)
Experimental: as §1, §2, §3, §4

IKKe = IKKe (Homo sapiens, UniProt Q14164); settings: IKKe (Entrez IKBKE), read-out: Residual activity (%)
Experimental: as §1, §2, §3, §4

MST2 = MST2 (Homo sapiens, UniProt Q13188); settings: MST2 (Entrez STK3), read-out: Residual activity (%)
Experimental: as §1, §2, §3, §4

ERK5 = ERK5 (Homo sapiens, UniProt Q13164); settings: ERK5 (Entrez MAPK7), read-out: Residual activity (%)
Experimental: as §1, §2, §3, §4

ZAP70 = ZAP70 (Homo sapiens, UniProt P43403); settings: ZAP70 (Entrez ZAP70), read-out: Residual activity (%)
Experimental: as §1, §2, §3, §4

CLK2 = CLK2 (Homo sapiens, UniProt P49760); settings: CLK2 (Entrez CLK2), read-out: Residual activity (%)
Experimental: as §1, §2, §3, §4

Src = Src (Homo sapiens, UniProt P12931); settings: Src (Entrez SRC), read-out: Residual activity (%)
Experimental: as §1, §2, §3, §4

BRK = BRK (Homo sapiens, UniProt Q13882); settings: BRK (Entrez PTK6), read-out: Residual activity (%)
Experimental: as §1, §2, §3, §4

IKKb = IKKb (Homo sapiens, UniProt O14920); settings: IKKb (Entrez IKBKB), read-out: Residual activity (%)
Experimental: as §1, §2, §3, §4

JNK3 = JNK3 (Homo sapiens, UniProt P53779); settings: JNK3 (Entrez MAPK10), read-out: Residual activity (%)
Experimental: as §1, §2, §3, §4

PIM2 = PIM2 (Homo sapiens, UniProt Q9P1W9); settings: PIM2 (Entrez PIM2), read-out: Residual activity (%)
Experimental: as §1, §2, §3, §4

TrkA = TrkA (Homo sapiens, UniProt P04629); settings: TrkA (Entrez NTRK1), read-out: Residual activity (%)
Experimental: as §1, §2, §3, §4

MST4 = MST4 (Homo sapiens, UniProt Q9P289); settings: MST4 (Entrez STK26), read-out: Residual activity (%)
Experimental: as §1, §2, §3, §4

SYK = SYK (Homo sapiens, UniProt P43405); settings: SYK (Entrez SYK), read-out: Residual activity (%)
Experimental: as §1, §2, §3, §4

ERK8 = ERK8 (Homo sapiens, UniProt Q8TD08); settings: ERK8 (Entrez MAPK15), read-out: Residual activity (%)
Experimental: as §1, §2, §3, §4

NEK6 = NEK6 (Homo sapiens, UniProt Q9HC98); settings: NEK6 (Entrez NEK6), read-out: Residual activity (%)
Experimental: as §1, §2, §3, §4

VEG-FR = VEG-FR (Homo sapiens, UniProt P17948); settings: VEG-FR (Entrez FLT1), read-out: Residual activity (%)
Experimental: as §1, §2, §3, §4

NUAK1 = NUAK1 (Homo sapiens, UniProt O60285); settings: NUAK1 (Entrez NUAK1), read-out: Residual activity (%)
Experimental: as §1, §2, §3, §4

EF2K = EF2K (Homo sapiens, UniProt O00418); settings: EF2K (Entrez EEF2K), read-out: Residual activity (%)
Experimental: as §1, §2, §3, §4

p38a MAPK = p38a MAPK (Homo sapiens, UniProt Q16539); settings: p38a MAPK (Entrez MAPK14), read-out: Residual activity (%)
Experimental: as §1, §2, §3, §4

MAP4K5 = MAP4K5 (Homo sapiens, UniProt Q9Y4K4); settings: MAP4K5 (Entrez MAP4K5), read-out: Residual activity (%)
Experimental: as §1, §2, §3, §4

IRAK4 = IRAK4 (Homo sapiens, UniProt Q9NWZ3); settings: IRAK4 (Entrez IRAK4), read-out: Residual activity (%)
Experimental: as §1, §2, §3, §4

CHK1 = CHK1 (Homo sapiens, UniProt O14757); settings: CHK1 (Entrez CHEK1), read-out: Residual activity (%)
Experimental: as §1, §2, §3, §4

S6K1 = S6K1 (Homo sapiens, UniProt P23443); settings: S6K1 (Entrez RPS6KB1), read-out: Residual activity (%)
Experimental: as §1, §2, §3, §4

p38d MAPK = p38d MAPK (Homo sapiens, UniProt O15264); settings: p38d MAPK (Entrez MAPK12), read-out: Residual activity (%)
Experimental: as §1, §2, §3, §4

IRR = IRR (Homo sapiens, UniProt P14616); settings: IRR (Entrez INSRR), read-out: Residual activity (%)
Experimental: as §1, §2, §3, §4

PIM2, sequence (Q9P1W9 whole entry): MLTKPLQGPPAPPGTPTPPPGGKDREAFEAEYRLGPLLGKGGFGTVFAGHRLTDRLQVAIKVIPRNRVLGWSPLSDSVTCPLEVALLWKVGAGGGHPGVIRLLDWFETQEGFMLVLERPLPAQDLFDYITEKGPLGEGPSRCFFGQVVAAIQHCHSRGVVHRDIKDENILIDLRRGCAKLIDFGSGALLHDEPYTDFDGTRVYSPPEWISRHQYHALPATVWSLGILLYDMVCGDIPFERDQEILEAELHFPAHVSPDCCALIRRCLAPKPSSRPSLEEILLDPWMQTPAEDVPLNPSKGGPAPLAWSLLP
ERK8, sequence (Q8TD08 whole entry): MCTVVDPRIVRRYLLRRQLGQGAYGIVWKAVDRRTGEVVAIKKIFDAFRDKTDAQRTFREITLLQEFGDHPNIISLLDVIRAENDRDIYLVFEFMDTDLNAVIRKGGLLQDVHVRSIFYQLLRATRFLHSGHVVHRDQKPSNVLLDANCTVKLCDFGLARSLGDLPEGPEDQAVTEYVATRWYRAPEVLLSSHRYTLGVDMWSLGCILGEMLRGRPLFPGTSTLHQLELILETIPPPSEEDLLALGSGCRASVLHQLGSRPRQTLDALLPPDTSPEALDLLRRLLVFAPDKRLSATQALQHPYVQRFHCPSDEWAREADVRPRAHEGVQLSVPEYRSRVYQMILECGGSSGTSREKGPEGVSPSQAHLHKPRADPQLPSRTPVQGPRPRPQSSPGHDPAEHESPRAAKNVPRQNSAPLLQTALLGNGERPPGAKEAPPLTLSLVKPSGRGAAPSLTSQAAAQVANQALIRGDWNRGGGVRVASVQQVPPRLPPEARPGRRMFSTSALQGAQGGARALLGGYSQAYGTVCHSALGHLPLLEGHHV
CLK2, sequence (P49760 whole entry): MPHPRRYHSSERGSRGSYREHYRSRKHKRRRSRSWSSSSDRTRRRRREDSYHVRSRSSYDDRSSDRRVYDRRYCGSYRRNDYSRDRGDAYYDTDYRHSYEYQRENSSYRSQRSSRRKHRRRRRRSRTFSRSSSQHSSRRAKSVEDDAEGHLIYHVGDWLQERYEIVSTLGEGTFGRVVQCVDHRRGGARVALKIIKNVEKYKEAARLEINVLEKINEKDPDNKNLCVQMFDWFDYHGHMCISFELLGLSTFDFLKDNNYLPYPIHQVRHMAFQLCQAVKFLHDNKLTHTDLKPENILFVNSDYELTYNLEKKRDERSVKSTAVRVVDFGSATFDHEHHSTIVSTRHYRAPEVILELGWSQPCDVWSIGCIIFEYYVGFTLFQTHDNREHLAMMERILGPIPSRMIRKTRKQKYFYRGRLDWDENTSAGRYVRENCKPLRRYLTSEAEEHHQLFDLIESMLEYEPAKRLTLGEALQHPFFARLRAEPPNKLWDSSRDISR
p38d MAPK, sequence (O15264 whole entry): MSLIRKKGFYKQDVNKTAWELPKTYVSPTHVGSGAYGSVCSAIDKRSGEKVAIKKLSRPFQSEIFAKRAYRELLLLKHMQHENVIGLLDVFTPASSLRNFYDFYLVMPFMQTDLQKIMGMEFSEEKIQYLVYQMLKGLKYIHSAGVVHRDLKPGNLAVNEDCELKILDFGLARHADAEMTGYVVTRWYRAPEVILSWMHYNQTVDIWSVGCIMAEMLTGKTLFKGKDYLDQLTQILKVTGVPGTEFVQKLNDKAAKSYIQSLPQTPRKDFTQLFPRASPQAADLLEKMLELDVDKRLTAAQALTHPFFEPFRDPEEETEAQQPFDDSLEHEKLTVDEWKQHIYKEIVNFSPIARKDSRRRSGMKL
NEK6, sequence (Q9HC98 whole entry): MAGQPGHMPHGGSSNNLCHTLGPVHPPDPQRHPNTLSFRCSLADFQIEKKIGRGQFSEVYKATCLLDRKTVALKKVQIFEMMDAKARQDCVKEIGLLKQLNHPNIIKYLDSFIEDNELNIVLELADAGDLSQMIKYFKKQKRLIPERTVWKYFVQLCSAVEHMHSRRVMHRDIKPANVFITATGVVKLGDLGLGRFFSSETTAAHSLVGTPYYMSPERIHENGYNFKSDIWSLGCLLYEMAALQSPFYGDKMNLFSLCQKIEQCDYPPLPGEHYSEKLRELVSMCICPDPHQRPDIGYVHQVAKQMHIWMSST
JAK3, sequence (P52333 whole entry, species assumed): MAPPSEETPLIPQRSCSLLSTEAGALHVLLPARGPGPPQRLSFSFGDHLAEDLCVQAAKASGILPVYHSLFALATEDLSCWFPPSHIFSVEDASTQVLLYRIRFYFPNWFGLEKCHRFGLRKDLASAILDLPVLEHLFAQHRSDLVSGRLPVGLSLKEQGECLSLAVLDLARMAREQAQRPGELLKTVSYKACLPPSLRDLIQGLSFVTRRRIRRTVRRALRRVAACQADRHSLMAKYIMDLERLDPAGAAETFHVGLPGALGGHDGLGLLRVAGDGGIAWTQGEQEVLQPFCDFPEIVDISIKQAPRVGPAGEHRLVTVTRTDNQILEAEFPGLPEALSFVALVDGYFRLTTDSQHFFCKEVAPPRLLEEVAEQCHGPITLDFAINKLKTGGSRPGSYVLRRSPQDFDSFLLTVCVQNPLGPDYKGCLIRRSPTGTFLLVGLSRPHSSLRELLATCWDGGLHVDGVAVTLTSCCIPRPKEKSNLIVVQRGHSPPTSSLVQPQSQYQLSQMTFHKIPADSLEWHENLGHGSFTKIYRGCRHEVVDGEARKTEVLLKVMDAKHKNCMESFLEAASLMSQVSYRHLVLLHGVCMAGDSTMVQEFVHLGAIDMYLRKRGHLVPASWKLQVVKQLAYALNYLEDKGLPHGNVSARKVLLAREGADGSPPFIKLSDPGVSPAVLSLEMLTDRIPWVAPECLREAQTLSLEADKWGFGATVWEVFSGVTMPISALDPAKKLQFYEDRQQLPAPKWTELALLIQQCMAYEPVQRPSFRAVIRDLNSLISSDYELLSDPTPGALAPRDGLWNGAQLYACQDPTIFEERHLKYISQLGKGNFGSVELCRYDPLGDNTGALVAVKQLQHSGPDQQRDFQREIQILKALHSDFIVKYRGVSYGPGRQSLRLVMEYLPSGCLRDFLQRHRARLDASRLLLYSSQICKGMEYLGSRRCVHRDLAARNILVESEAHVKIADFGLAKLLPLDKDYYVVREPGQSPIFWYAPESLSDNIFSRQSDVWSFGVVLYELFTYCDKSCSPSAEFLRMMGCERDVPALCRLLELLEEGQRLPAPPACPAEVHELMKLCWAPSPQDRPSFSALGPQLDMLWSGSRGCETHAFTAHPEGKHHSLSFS
CHK1, sequence (O14757 whole entry): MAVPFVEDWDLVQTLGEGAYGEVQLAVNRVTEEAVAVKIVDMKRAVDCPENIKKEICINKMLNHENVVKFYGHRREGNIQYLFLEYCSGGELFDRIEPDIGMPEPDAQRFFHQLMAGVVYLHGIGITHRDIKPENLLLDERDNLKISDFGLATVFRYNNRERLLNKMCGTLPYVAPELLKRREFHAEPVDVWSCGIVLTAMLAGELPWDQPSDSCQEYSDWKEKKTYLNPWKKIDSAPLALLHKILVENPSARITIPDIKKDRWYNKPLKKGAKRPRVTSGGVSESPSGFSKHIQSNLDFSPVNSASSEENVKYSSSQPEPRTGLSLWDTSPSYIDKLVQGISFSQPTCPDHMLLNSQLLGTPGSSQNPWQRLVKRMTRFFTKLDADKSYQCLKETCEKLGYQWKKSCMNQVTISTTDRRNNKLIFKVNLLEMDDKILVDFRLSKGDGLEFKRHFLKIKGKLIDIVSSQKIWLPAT
ERK5, sequence (Q13164 whole entry): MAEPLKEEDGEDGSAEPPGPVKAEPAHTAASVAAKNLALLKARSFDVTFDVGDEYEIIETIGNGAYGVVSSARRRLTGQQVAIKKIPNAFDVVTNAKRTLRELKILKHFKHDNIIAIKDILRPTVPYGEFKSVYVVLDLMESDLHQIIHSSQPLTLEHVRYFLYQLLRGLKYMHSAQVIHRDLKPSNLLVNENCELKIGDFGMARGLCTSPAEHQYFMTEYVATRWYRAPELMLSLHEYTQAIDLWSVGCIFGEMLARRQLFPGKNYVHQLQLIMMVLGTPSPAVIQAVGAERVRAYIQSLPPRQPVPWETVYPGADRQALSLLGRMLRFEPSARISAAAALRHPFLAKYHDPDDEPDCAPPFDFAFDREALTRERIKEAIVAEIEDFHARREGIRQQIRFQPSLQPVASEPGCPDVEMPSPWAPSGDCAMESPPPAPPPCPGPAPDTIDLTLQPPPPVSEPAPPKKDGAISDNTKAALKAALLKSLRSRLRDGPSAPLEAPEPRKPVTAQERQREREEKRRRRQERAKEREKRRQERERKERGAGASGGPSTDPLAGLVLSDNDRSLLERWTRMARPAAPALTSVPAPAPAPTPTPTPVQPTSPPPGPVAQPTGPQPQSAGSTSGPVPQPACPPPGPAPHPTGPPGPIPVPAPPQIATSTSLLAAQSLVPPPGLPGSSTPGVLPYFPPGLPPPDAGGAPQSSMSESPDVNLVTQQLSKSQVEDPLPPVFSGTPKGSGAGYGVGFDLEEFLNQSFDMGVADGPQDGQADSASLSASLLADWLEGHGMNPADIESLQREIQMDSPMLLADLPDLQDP
IRAK4, sequence (Q9NWZ3 whole entry): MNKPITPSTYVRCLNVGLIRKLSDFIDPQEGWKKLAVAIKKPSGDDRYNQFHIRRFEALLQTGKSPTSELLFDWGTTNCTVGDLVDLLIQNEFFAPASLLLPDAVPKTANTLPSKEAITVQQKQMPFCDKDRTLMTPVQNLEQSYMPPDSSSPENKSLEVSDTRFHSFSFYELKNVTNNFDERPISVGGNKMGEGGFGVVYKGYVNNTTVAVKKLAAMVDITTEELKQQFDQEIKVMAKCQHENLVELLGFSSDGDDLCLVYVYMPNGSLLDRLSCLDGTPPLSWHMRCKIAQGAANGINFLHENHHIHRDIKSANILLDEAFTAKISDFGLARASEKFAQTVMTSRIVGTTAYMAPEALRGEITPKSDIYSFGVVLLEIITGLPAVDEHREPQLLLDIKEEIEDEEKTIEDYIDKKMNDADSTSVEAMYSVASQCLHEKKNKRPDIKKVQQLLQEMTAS

`COc1ccc(Nc2ncnc3c2ccn3-c2ccc(C)c(C)c2)cc1Cl` [compound 36] gave a remaining activity at 1 µM (JAK3) of 63%, a remaining activity at 1 µM (CHK2) of 96% and a remaining activity at 1 µM (JNK2) of 106%. It also gave a remaining activity at 1 µM (Aurora B) of 110%, a remaining activity at 1 µM (MSK1) of 103% and a remaining activity at 1 µM (ULK1) of 102%. The remaining activity at 1 µM (IKKe) was 89%, the remaining activity at 1 µM (MST2) was 86% and the remaining activity at 1 µM (ERK5) was 95%. It also gave a remaining activity at 1 µM (ZAP70) of 99%, a remaining activity at 1 µM (CLK2) of 107% and a remaining activity at 1 µM (Src) of 93%. It also gave a remaining activity at 1 µM (BRK) of 126%, a remaining activity at 1 µM (IKKb) of 75% and a remaining activity at 1 µM (JNK3) of 89%. For the same molecule, the remaining activity at 1 µM (PIM2) was 97%, the remaining activity at 1 µM (TrkA) was 85% and the remaining activity at 1 µM (MST4) was 99%. It also gave a remaining activity at 1 µM (SYK) of 97%, a remaining activity at 1 µM (ERK8) of 110% and a remaining activity at 1 µM (NEK6) of 104%. The remaining activity at 1 µM (VEG-FR) was 99%, the remaining activity at 1 µM (NUAK1) was 138% and the remaining activity at 1 µM (EF2K) was 85%. The remaining activity at 1 µM (p38a MAPK) was 98%, the remaining activity at 1 µM (MAP4K5) was 80% and the remaining activity at 1 µM (IRAK4) was 113%. The remaining activity at 1 µM (CHK1) was 82%, the remaining activity at 1 µM (S6K1) was 89% and the remaining activity at 1 µM (p38d MAPK) was 128%. The remaining activity at 1 µM (IRR) was 96%.
